Results from the NIST ThermoML archive (doi:10.1016/j.jct.2018.01.025).

Conditions: Liquid; for mass density: Vibrating tube method

CCCC[N+](C)(C)C.O=S(=O)([N-]S(=O)(=O)C(F)(F)F)C(F)(F)F [butyltrimethylammonium bis(trifluoromethylsulfonyl)imide]
Conditions | viscosity [mPa·s]
278.15 K, 101.33 kPa, Concentric cylinders viscometry | 360.1
283.15 K, 101.33 kPa, Concentric cylinders viscometry | 253.8
288.15 K, 101.33 kPa, Concentric cylinders viscometry | 184.7
293.15 K, 101.33 kPa, Concentric cylinders viscometry | 138.3
298.15 K, 101.33 kPa, Concentric cylinders viscometry | 105.4
298.6 K, 101.33 kPa, Vibrating wire viscometry | 102.17
301.53 K, 101.33 kPa, Vibrating wire viscometry | 87.01
303.15 K, 101.33 kPa, Concentric cylinders viscometry | 82.19
303.15 K, 10000 kPa, Falling or rolling sphere viscometry | 93.4
303.15 K, 15000 kPa, Falling or rolling sphere viscometry | 99.9
303.15 K, 25000 kPa, Falling or rolling sphere viscometry | 114
303.15 K, 50000 kPa, Falling or rolling sphere viscometry | 158.2
303.15 K, 75000 kPa, Falling or rolling sphere viscometry | 218.5
303.15 K, 100000 kPa, Falling or rolling sphere viscometry | 300.8
303.15 K, 125000 kPa, Falling or rolling sphere viscometry | 413.1
303.15 K, 150000 kPa, Falling or rolling sphere viscometry | 566.6
304.45 K, 101.33 kPa, Vibrating wire viscometry | 76.4
307.33 K, 101.33 kPa, Vibrating wire viscometry | 66.1
308.15 K, 101.33 kPa, Concentric cylinders viscometry | 65.33
310.28 K, 101.33 kPa, Vibrating wire viscometry | 58.41
313.15 K, 101.33 kPa, Concentric cylinders viscometry | 53.01
313.15 K, 10000 kPa, Falling or rolling sphere viscometry | 59.7
313.15 K, 15000 kPa, Falling or rolling sphere viscometry | 63.7
313.15 K, 25000 kPa, Falling or rolling sphere viscometry | 72.4
313.15 K, 50000 kPa, Falling or rolling sphere viscometry | 98.5
313.15 K, 75000 kPa, Falling or rolling sphere viscometry | 132.2
313.15 K, 100000 kPa, Falling or rolling sphere viscometry | 175.9
313.15 K, 125000 kPa, Falling or rolling sphere viscometry | 232.5
313.15 K, 150000 kPa, Falling or rolling sphere viscometry | 306
313.34 K, 101.33 kPa, Vibrating wire viscometry | 50.51
318.15 K, 101.33 kPa, Concentric cylinders viscometry | 43.22
323.15 K, 101.33 kPa, Concentric cylinders viscometry | 35.9
323.15 K, 10000 kPa, Falling or rolling sphere viscometry | 40.1
323.15 K, 15000 kPa, Falling or rolling sphere viscometry | 42.6
323.15 K, 25000 kPa, Falling or rolling sphere viscometry | 47.9
323.15 K, 50000 kPa, Falling or rolling sphere viscometry | 63.5
323.15 K, 75000 kPa, Falling or rolling sphere viscometry | 83.6
323.15 K, 100000 kPa, Falling or rolling sphere viscometry | 109.1
323.15 K, 125000 kPa, Falling or rolling sphere viscometry | 142
323.15 K, 150000 kPa, Falling or rolling sphere viscometry | 183.4
323.33 K, 101.33 kPa, Vibrating wire viscometry | 35.59
328.15 K, 101.33 kPa, Concentric cylinders viscometry | 30.18
328.27 K, 101.33 kPa, Vibrating wire viscometry | 29.72
333.15 K, 101.33 kPa, Concentric cylinders viscometry | 25.64
333.15 K, 10000 kPa, Falling or rolling sphere viscometry | 28.2
333.15 K, 15000 kPa, Falling or rolling sphere viscometry | 29.8
333.15 K, 25000 kPa, Falling or rolling sphere viscometry | 33.3
333.15 K, 50000 kPa, Falling or rolling sphere viscometry | 43.4
333.15 K, 75000 kPa, Falling or rolling sphere viscometry | 56.1
333.15 K, 100000 kPa, Falling or rolling sphere viscometry | 71.9
333.15 K, 125000 kPa, Falling or rolling sphere viscometry | 91.8
333.15 K, 150000 kPa, Falling or rolling sphere viscometry | 116.8
338.15 K, 101.33 kPa, Concentric cylinders viscometry | 22.02
343.15 K, 101.33 kPa, Concentric cylinders viscometry | 19.08
343.15 K, 10000 kPa, Falling or rolling sphere viscometry | 21
343.15 K, 15000 kPa, Falling or rolling sphere viscometry | 22
343.15 K, 25000 kPa, Falling or rolling sphere viscometry | 24.3
343.15 K, 50000 kPa, Falling or rolling sphere viscometry | 31
343.15 K, 75000 kPa, Falling or rolling sphere viscometry | 39.5
343.15 K, 100000 kPa, Falling or rolling sphere viscometry | 50.3
343.15 K, 125000 kPa, Falling or rolling sphere viscometry | 63.8
343.15 K, 150000 kPa, Falling or rolling sphere viscometry | 81
348.15 K, 101.33 kPa, Concentric cylinders viscometry | 16.65
353.15 K, 101.33 kPa, Concentric cylinders viscometry | 14.74
353.15 K, 10000 kPa, Falling or rolling sphere viscometry | 15.6
353.15 K, 15000 kPa, Falling or rolling sphere viscometry | 16.5
353.15 K, 25000 kPa, Falling or rolling sphere viscometry | 18.3
353.15 K, 50000 kPa, Falling or rolling sphere viscometry | 23.4
353.15 K, 75000 kPa, Falling or rolling sphere viscometry | 29.4
353.15 K, 100000 kPa, Falling or rolling sphere viscometry | 36.6
353.15 K, 125000 kPa, Falling or rolling sphere viscometry | 45.3
353.15 K, 150000 kPa, Falling or rolling sphere viscometry | 55.7
358.15 K, 101.33 kPa, Concentric cylinders viscometry | 12.99
363.15 K, 101.33 kPa, Concentric cylinders viscometry | 11.58
368.15 K, 101.33 kPa, Concentric cylinders viscometry | 10.38
373.15 K, 101.33 kPa, Concentric cylinders viscometry | 9.36

101.33 kPa
Conditions | mass density [kg/m3]
278.15 K | 1411.5
283.15 K | 1406.6
288.15 K | 1401.9
293.15 K | 1397.2
298.15 K | 1392.8
303.15 K | 1388.4
308.15 K | 1384
313.15 K | 1379.7
318.15 K | 1375.4
323.15 K | 1371.1
328.15 K | 1366.8
333.15 K | 1362.6
338.15 K | 1358.4
343.15 K | 1354.2
348.15 K | 1350
353.15 K | 1345.7
358.15 K | 1341.4
363.15 K | 1336.8
368.15 K | 1332.5
373.15 K | 1328.4
